Source: patent publication US20240216376A1, “COMBINATION THERAPIES FOR THE TREATMENT OF CANCER” (Duke University, priority 2021, published 2024)

How the values were obtained:
AKT [1] = test: Western immunoblot of AKT phosphorylation in AML cell lines; format: cell-based
Description: (§1) Protein lysates were prepared with 1×CST Lysis Buffer (CST #9803) supplemented with 1× cOmplete protease inhibitor cocktail (Roche #04693124001) and 1× PhosSTOP phosphatase inhibitor (Roche #04906837001). Crude lysates were rotated for 15 minutes with lysis buffer, cleared by centrifugation at 13,000 rpm for 10 minutes at 4° C. and normalized by total protein content using standard Bradford analysis. Membranes were probed with primary antibodies β-actin (13E5) (CST #4970 diluted 1:5000 in 5% BSA), p-AKT T308 (244F9) (CST #4056 diluted 1:1000 in 5% BSA), p-AKT S473 (D9E) (CST #4060 diluted 1:1000 in 5% BSA), T-AKT (C67E7) (CST #4691 diluted 1:3000 in 5% BSA), p-GSK3B S9 (D85E12) (CST #5558 diluted 1:1000 in 5% BSA), p-BAD S136 (D25H8) (CST #4366 diluted 1:1000 in 5% BSA), CRM1 (C-1) (sc #74454 diluted 1:100 in 5% BSA), cleaved-PARP (D64E10) (CST #5625 diluted 1:1000 in 5% BSA), cleaved-Caspase3 D175 (CST #9661 diluted 1:500 in 5% BSA), p110-g (D55D5) (CST #5405 diluted 1:1000 in 5% BSA), p110α (C73F8) (CST #4249 diluted 1:1000 in 5% BSA), p110β (C33D4) (CST #3011 diluted 1:1000 in 5% BSA), p1108 (D1Q7R) (CST #34050 diluted 1:1000 in 5% BSA) or p101 (D32A5) (CST #5569 diluted 1:1000 in 5% BSA) overnight (16 hours). Following incubation with HRP-conjugated secondary antibody, blots were developed with SuperSignal West Pico PLUS Chemiluminescent Substrate (ThermoFisher) or ECL Western Blotting Substrate (ThermoFisher).
To validate selinexor's ability to activate PI3K/AKT signaling, each of five AML cell lines was treated with selinexor for 24 hours before performing western blot analysis. […] Additional AKT-dependent phosphorylation marks on PRAS40, FOXO3a, and TSC2 were also assessed in OCI-AML2 cells and found to be increased. This phosphorylation pattern was indicative of activated AKT signaling. To characterize the kinetics of selinexor-induced AKT activation, AML cells were treated with selinexor and collected samples at interval time points up to 48 hours. Across multiple cell lines, activation of AKT signaling was observed starting at 8-24 hours (FIG. 2B). […] The delays between treatment and AKT activation, observed both in vivo and in vitro, were not inconsistent with the presumption that selinexor primarily acts through transcriptional mechanisms. Finally, to assess the exclusivity of these findings for selinexor, cells were treated with a panel of eight additional anti-leukemic drugs for 24 hours.

RAS = test: Ras-GTP immunoprecipitation (RAF1-RBD pulldown); format: cell-based
Source text: Active GTP bound Ras was pulled down and detected using the Active Ras Pull-Down and Detection Kit (Thermo Scientific, #16117) according to manufacturer's instruction. At least 10×10^6 cells were used in pull-down and lysates were normalized to ensure equal protein input across DMSO and selinexor-treated samples within each cell line.

AML cell lines = test: Short-term drug sensitivity assay (GI50), selinexor plus background drug; format: cell-based; settings: fixed-concentration background drug; for sensitization to selinexor (relative selinexor GI50), PI3K isoform-specific inhibitor background: panel of AML cell lines; for sensitization to selinexor (relative selinexor GI50), AKT or MEK/ERK inhibitor background: panel of eight AML cell lines, 72 hours
Description: Short-term cell viability assays were conducted. Briefly, AML cells were seeded at a density of 7,500 cells/well, treated with vehicle (DMSO) or a 10-fold serial dilution of selinexor (individually or combination with fixed-concentration background drug) and assessed for viability after 72-hours using Cell Titer Glo (Promega). The relative cell viability was determined by normalizing the raw luminescence values for each treatment condition to either the DMSO-treated well (selinexor individually) or the background drug only well (selinexor combinations). GI50 values approximate the concentration of selinexor required to inhibit growth of cells by 50%. Values were interpolated from dose-response curves plotted using GraphPad/Prism 8 software.

OCI-AML2 cells [2] = test: Pooled CRISPR selinexor sensitizer screen, selinexor dose (approx. GI50); format: cell-based; settings: Homo sapiens, 336 h, two-week screen period, approximate, read-out: GI50 concentration
Description: Virus production, titering and transduction was performed as previously described. In short, viral titer (Infectious Units (IFU)/mL) was found by transducing OCI-AML2 cells with a 1:3 dilution series of library virus, selecting cells with puromycin for 2 days and determining multiplicity of infection (MOI) from % of cells infected. Viral titer is equal to (#cells seeded*MOI*Virus dilution factor)/(Volume of virus added to each well). […] For the selinexor sensitizer screen, selinexor was dosed at 100 nM, a concentration that yielded sufficient selective pressure without excessive cell death (approximately the GI50 concentration) over the two-week screen period. […] Genomic DNA was extracted using the DNeasy Blood & Tissue Kit (Qiagen) from 25×10^6 cell samples taken prior to dividing cells into treatment conditions (time zero) and after completion of the two-week screen. Amplification of the sgRNA barcodes and indexing of each sample was performed via 2-step PCR as previously described.

[3] = format: in vivo; settings: selinexor 15 mg/kg in mice
Description: Animals transplanted with these AML cells were treated with the combination of selinexor (15 mg/kg, oral gavage) and ipatasertib (65 mg/kg, oral gavage) or either drug alone every other day for ten days.

extracellular ATP = test: Extracellular ATP release in presence of ARL67156; format: cell-based; settings: 36 hours, with ectonucleotidase inhibitor ARL67156, normalized for cell quantity
Description: To assess the role of P2RY2 in selinexor-induced AKT activation, the ability of P2RY2 to activate AKT in the AML cell lines was first tested by culturing cells in the presence of exogenous ATP or UTP. Cells cultured with exogenous ATP activated AKT signaling while cells cultured with exogenous UTP only minimally activated AKT, if at all, prompting the possibility that selinexor may activate AKT signaling through induced release of extracellular ATP. This was tested by treating cells with selinexor versus vehicle in the presence of the ectonucleotidase inhibitor ARL67156 and quantifying the amount of extracellular ATP released after 36 hours.

AKT [4] = test: AKT activation in vivo, syngeneic MLL-AF9-driven model of AML; settings: MLL-AF9 cells from treated mice
P2RY2 = test: qRT-PCR of P2RY2 expression; format: cell-based
Description: RNA was isolated from whole cells with the RNEasy Mini kit (Qiagen). cDNA was reverse transcribed from total RNA samples using iScript cDNA Synthesis Kit with 1 μg of RNA template. qRT-PCR was carried out using iQ SYBR Green Supermix and a CFX384 Touch Real-Time PCR Detection System, according to manufacturer instructions. Fold expression was determined by normalizing cycle threshold (Cq) values to ACTB reference gene and normalizing samples to control sample, in accordance with the ΔΔCq method.

OCI-AML2 cells [5] = test: Reverse phase protein array (RPPA) analysis; format: cell-based
Description: OCI-AML2 cells were treated with DMSO or selinexor for 3, 24 and 48-hours at which point 3×10^6 cells were pelleted and frozen at -80° C. RPPA analysis was performed as previously described. All samples were conducted in biological triplicate and normalized to DMSO control at each respective timepoint. Next, it was sought to identify the signaling nodes activated by selinexor treatment. To do this, a reverse phase protein array (RPPA) was used to analyze AML cells treated with DMSO or selinexor for 48 hours, using a dose of selinexor sufficient to provide an on-target effect but not high enough to impose a meaningful selective pressure. The RPPA platform, which provides quantitative measurements of 160 epitopes and phospho-epitopes representing cellular growth, proliferation, and signaling pathways, identified many drug-induced effects, several of which supported previously described mechanisms of selinexor activity. […] (FIG. 1C). […] In addition to corroborating selinexor's established effects, the RPPA data was able to identify selinexor-induced downregulations of phospho-S6 at Ser235/236 and Ser240/244, phospho-elF4G at […], and phospho-4E-BP1 at […], which collectively pointed to suppression of mTORC1 signaling (FIG. 1C). This idea has been raised in multiple myeloma and was further supported here by the reciprocal upregulation of DEPTOR, a negative regulator of mTOR.

MAPK signaling = test: Western blot of MAPK signaling in AML cell lines; format: cell-based; settings: multiple AML cell lines
Description: as §1, with “Following incubation with HRP-conjugated secondary antibody, blots were developed with SuperSignal West Pico PLUS Chemiluminescent Substrate (ThermoFisher) or ECL Western Blotting Substrate (ThermoFisher).” left out

In the case of Cc1ccc2c(c1)C=Cc1cc(C)ccc1C2c1cn(Cc2ccc(C(=O)Nc3nn[nH]n3)o2)c(=O)[nH]c1=S [AR-C118925XX], the “p-AKT T308 in FLT3-mutant expressing cells” value (AKT [1]; OCI-AML2 cells expressing D835Y-mutant FLT3) is reported as “reduced but did not completely ablate the elevated p-AKT T308 signal”, the “p-AKT T308, baseline” value (AKT [1]; OCI-AML2 cells expressing GFP, western blot) is reported as “suppressed p-AKT T308” and the “effect on selinexor-induced GTP-RAS” value (RAS; OCI-AML2, AR-C added to selinexor) is reported as “able to reverse the increased GTP-RAS”.
For Cc1nc(NC(=O)N2CCC[C@H]2C(N)=O)sc1-c1ccnc(C(C)(C)C(F)(F)F)c1 [BYL-719], the “sensitization to selinexor (relative selinexor GI50), PI3K isoform-specific inhibitor background” value (AML cell lines) was “unable to sensitize any of the cell lines to selinexor”.
With CCn1c(-c2nonc2N)nc2c(C#CC(C)(C)O)ncc(OC[C@H]3CCCNC3)c21 [GSK690693] the “sensitization to selinexor (relative selinexor GI50), AKT or MEK/ERK inhibitor background” value (AML cell lines) was “capable of sensitizing all eight of the AML cell lines tested to selinexor”.
For C[C@H](NC(=O)c1c(N)nn2cccnc12)c1cc2cccc(C#Cc3cnn(C)c3)c2c(=O)n1-c1ccccc1 [IPI-549], the “sensitization to selinexor (relative selinexor GI50), PI3K isoform-specific inhibitor background” value (AML cell lines) was “capable of sensitizing each AML cell line to selinexor”.
For NC1(c2ccc(-c3nc4ccn5c(=O)[nH]nc5c4cc3-c3ccccc3)cc2)CCC1 [MK-2206], the “sensitization to selinexor (relative selinexor GI50), AKT or MEK/ERK inhibitor background” value (AML cell lines) was “capable of sensitizing all eight of the AML cell lines tested to selinexor”.
With Cc1cc(C(C)Nc2ccccc2)c2nc(N3CCOCC3)cc(=O)n2c1 (stereo not shown) [TGX-221] the “sensitization to selinexor (relative selinexor GI50), PI3K isoform-specific inhibitor background” value (AML cell lines) was “unable to sensitize any of the cell lines to selinexor”.
With NC(=O)/C(=C/n1cnc(-c2cc(C(F)(F)F)cc(C(F)(F)F)c2)n1)c1cncnc1 [eltanexor] the “AKT phosphorylation at Thr308 and Ser473 (second-generation CRM1 inhibitor)” value (AKT [1]; western blot of eltanexor-treated samples) was “produced consistent phosphorylation of AKT at Thr308 and Ser473”.
For CC(C)NC[C@@H](C(=O)N1CCN(c2ncnc3c2[C@H](C)C[C@H]3O)CC1)c1ccc(Cl)cc1 [ipatasertib], the “sensitization to selinexor (relative selinexor GI50), AKT or MEK/ERK inhibitor background” value (AML cell lines) was “capable of sensitizing all eight of the AML cell lines tested to selinexor”.
For O=C(/C=C\n1cnc(-c2cc(C(F)(F)F)cc(C(F)(F)F)c2)n1)NNc1cnccn1 [selinexor], the GI50 (OCI-AML2 cells [2]) was roughly 100 nM, the on-target response [3] was “induction of p53” and the “AKT phosphorylation at Thr308 and Ser473” value (AKT [1]; five AML cell lines, selinexor 24 hours, western blot) was “increased AKT phosphorylation at both Thr308 and Ser473”. For the same compound, the “start of activation of AKT signaling” value (AKT [1]; multiple AML cell lines, time points up to 48 hours) was 8 to 24 h, the “extracellular ATP released” value (extracellular ATP) was “no increase in extracellular ATP” and the GTP-RAS (RAS; five AML cell lines, selinexor- versus vehicle-treated) was “increased GTP-RAS”. For the same compound, the “start of AKT activation after treatment” value (AKT [4]) was 6 to 8 h, the P2RY2 expression (P2RY2; each of five AML cell lines, vs DMSO control) was “increased P2RY2 expression” and the “time course of P2RY2 transcriptional upregulation” value (P2RY2; qRT-PCR, up to 48 hours) was “transcriptional upregulation of P2RY2 starting at 12 and increasing through 48 hours”. For the same compound, the “RPPA expression of phospho-AKT (Thr308 and Ser473)” value (OCI-AML2 cells [5]; OCI-AML2 cells, 48 hours selinexor vs DMSO) was “two of the strongest upregulations identified by RPPA were reserved for AKT”, the “RPPA phospho-ERK at Thr202/Tyr204” value (OCI-AML2 cells [5]; selinexor- versus vehicle-treated cells) was “an increase in phopho-ERK at Thr202/Tyr204” and the MAPK signaling (MAPK signaling) was “activated MAPK signaling in a P2RY2 dependent manner”.
